Test results taken from patent US9255101B2 (BIOPROJECT, priority 2012, dated 2016).
pKi: −log10 of the molar value. Structures can show the parent of a compound that is named as a salt.

Target: human H4 receptor (Homo sapiens, UniProt Q9H3N8)
Assay: biochemical
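Further: radioligand displacement of a [3H]-labelled ligand from membranes of CHO cells stably expressing human H4 receptor, bound radioactivity counted on filters by liquid scintillation.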

human H4 receptor, sequence (Q9H3N8 whole entry): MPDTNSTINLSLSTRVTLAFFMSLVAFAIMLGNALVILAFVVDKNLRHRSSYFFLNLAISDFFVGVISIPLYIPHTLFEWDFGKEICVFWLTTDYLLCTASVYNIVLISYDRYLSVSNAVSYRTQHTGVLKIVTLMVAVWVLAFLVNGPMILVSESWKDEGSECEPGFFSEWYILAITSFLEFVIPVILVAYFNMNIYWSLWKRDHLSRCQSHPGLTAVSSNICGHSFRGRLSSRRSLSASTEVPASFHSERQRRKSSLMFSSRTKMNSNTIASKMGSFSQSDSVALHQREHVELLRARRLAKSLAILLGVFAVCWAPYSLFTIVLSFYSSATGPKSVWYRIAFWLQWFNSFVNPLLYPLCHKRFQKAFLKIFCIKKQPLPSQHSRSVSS

SMILES	pKi
CN1CCC(OC2c3ccccc3CCn3cc(SCc4ccco4)nc32)CC1 (stereo not shown) [Example 85, 2-(furan-2-ylmethylsulfanyl)-4-(1-methylpiperidin-4-yloxy)-9,10-dihydro-4H-3,10a-diaza-benzo[f]azulene oxalate]	> 6.52
CN1CCC(OC2c3ccccc3CCn3cc(-c4ccc(CSCCNC(=O)OC(C)(C)C)cc4)nc32)CC1 (stereo not shown) [Example 199, (2-{4-[4-(1-methylpiperidin-4-yloxy)-9,10-dihydro-4H-3,10a-diaza-benzo[f]azulen-2-yl]benzylsulfanyl}-ethyl)-carbamic acid tert-butyl ester]	> 6.52
CN1CCC(OC2c3ccccc3CCn3cc(-c4ccncc4)nc32)CC1 (stereo not shown) [Example 44, 4-(1-methylpiperidin-4-yloxy)-2-pyridin-4-yl-9,10-dihydro-4H-3,10a-diaza-benzo[f]azulene oxalate]	> 6.00
COCc1ccc(-c2cn3c(n2)C(OC2CCN(C)CC2)c2ccccc2CC3)cc1 (stereo not shown) [Example 19, 2-(4-methoxymethylphenyl)-4-(1-methylpiperidin-4-yloxy)-9,10-dihydro-4H-3,10a-diaza-benzo[f]azulene oxalate]	> 6.52
CN1CCC(OC2c3ccccc3CCn3cc(-c4cncs4)nc32)CC1 (stereo not shown) [Example 48, 4-(1-methylpiperidin-4-yloxy)-2-thiazol-5-yl-9,10-dihydro-4H-3,10a-diaza-benzo[f]azulene oxalate]	> 6.00
Cc1c(-c2ccc(C(=O)N3CCC(=O)CC3)cc2)nc2n1CCc1ccccc1C2OC1CCN(C)CC1 (stereo not shown) [Example 218, 1-{4-[1-methyl-4-(1-methylpiperidin-4-yloxy)-9,10-dihydro-4H-3,10a-diaza-benzo[f]azulen-2-yl]-benzoyl}-piperidin-4-one]	> 6.52
CN1CCC(OC2c3ccccc3CCn3cc(SC4CCN(C(=O)OC(C)(C)C)CC4)nc32)CC1 (stereo not shown) [Example 114, 4-[4-(1-methylpiperidin-4-yloxy)-9,10-dihydro-4H-3,10a-diaza-benzo[f]azulen-2-ylsulfanyl]-piperidine-1-carboxylic acid tert-butyl ester]	> 6.52
Cc1c(-c2ccc(C(=O)NC3CCC(O)CC3)cc2)nc2n1CCc1ccccc1C2OC1CCN(C)CC1 (stereo not shown) [Example 216, N-(4-hydroxycyclohexyl)-4-[1-methyl-4-(1-methylpiperidin-4-yloxy)-9,10-dihydro-4H-3,10a-diaza-benzo[f]azulen-2-yl]-benzamide]	> 6.52
Cc1c(-c2ccc(SCCNC(=N)N)cc2)nc2n1CCc1ccccc1C2OC1CCN(C)CC1 (stereo not shown) [Example 211, N-(2-{4-[1-methyl-4-(1-methylpiperidin-4-yloxy)-9,10-dihydro-4H-3,10a-diaza-benzo[f]azulen-2-yl]-phenylsulfanyl}-ethyl)-guanidine]	> 7.52
CN1CCC(OC2c3ccccc3CCn3cc(-c4cccnc4)nc32)CC1 (stereo not shown) [Example 45, 4-(1-methylpiperidin-4-yloxy)-2-pyridin-3-yl-9,10-dihydro-4H-3,10a-diaza-benzo[f]azulene oxalate]	> 6.00
Cc1c(-c2ccc(C(=O)N3CCC(O)CC3)cc2)nc2n1CCc1ccccc1C2OC1CCN(C)CC1 (stereo not shown) [Example 220, (4-hydroxypiperidin-1-yl)-{4-[1-methyl-4-(1-methylpiperidin-4-yloxy)-9,10-dihydro-4H-3,10a-diaza-benzo[f]azulen-2-yl]-phenyl}-methanone]	> 6.52
CN(C)Cc1ccc(-c2cn3c(n2)C(OC2CCN(C)CC2)c2ccccc2CC3)cc1 (stereo not shown) [Example 113, dimethyl-{4-[4-(1-methylpiperidin-4-yloxy)-9,10-dihydro-4H-3,10a-diaza-benzo[f]azulen-2-yl]-benzyl}-amine]	> 6.52
Cc1c(-c2ccc(SC(C)(C)C)cc2)nc2n1CCc1ccccc1C2OC1CCN(C)CC1 (stereo not shown) [Example 166, 2-(4-tert-butylsulfanylphenyl)-1-methyl-4-(1-methylpiperidin-4-yloxy)-9,10-dihydro-4H-3,10a-diaza-benzo[f]azulene oxalate]	> 7.52
CN1CCC(OC2c3ccccc3CCn3cc(-c4ccc(CNC(=O)C(C)(C)C)cc4)nc32)CC1 (stereo not shown) [Example 136, 2,2-dimethyl-N-{4-[4-(1-methylpiperidin-4-yloxy)-9,10-dihydro-4H-3,10a-diaza-benzo[f]azulen-2-yl]-benzyl}-propionamide]	> 6.52
CN1CCC(OC2c3ccccc3CCn3cc(Sc4ccccc4)nc32)CC1 (stereo not shown) [Example 73, 4-(1-methylpiperidin-4-yloxy)-2-phenylsulfanyl-9,10-dihydro-4H-3,10a-diaza-benzo[f]azulene oxalate]	> 6.52
Cc1c(-c2ccc(N3CCCCC3=O)cc2)nc2n1CCc1ccccc1C2OC1CCN(C)CC1 (stereo not shown) [Example 162, 1-{4-[1-methyl-4-(1-methylpiperidin-4-yloxy)-9,10-dihydro-4H-3,10a-diaza-benzo[f]azulen-2-yl]-phenyl}-piperidin-2-one oxalate]	> 6.52
CN1CCC(OC2c3ccccc3CCn3cc(C(C)(C)c4ccccc4)nc32)CC1 (stereo not shown) [Example 207, 2-(1-methyl-1-phenyl-ethyl)-4-(1-methylpiperidin-4-yloxy)-9,10-dihydro-4H-3,10a-diaza-benzo[f]azulene]	> 6.00
Cc1c(-c2ccc(C3=CCCC3)cc2)nc2n1CCc1ccccc1C2OC1CCN(C)CC1 (stereo not shown) [Example 169, 2-(4-cyclopent-1-enylphenyl)-1-methyl-4-(1-methylpiperidin-4-yloxy)-9,10-dihydro-4H-3,10a-diaza-benzo[f]azulene]	> 7.52
CN1CCC(OC2c3ccccc3CCn3cc(-c4ccc(C(=O)NCCO)cc4)nc32)CC1 (stereo not shown) [Example 212, N-(2-hydroxyethyl)-4-[4-(1-methylpiperidin-4-yloxy)-9,10-dihydro-4H-3,10a-diaza-benzo[f]azulen-2-yl]benzamide]	> 6.00
CN1CCC(OC2c3ccccc3CCn3cc(-c4ccc(CN5CCCCC5=O)cc4)nc32)CC1 (stereo not shown) [Example 185, 1-{4-[4-(1-methylpiperidin-4-yloxy)-9,10-dihydro-4H-3,10a-diaza-benzo[f]azulen-2-yl]benzyl}-piperidin-2-one]	> 6.52
CN1CCC(OC2c3ccccc3CCn3cc(C=Cc4cccs4)nc32)CC1 (stereo not shown) [Example 111, 4-(1-methylpiperidin-4-yloxy)-2-(2-thiophen-2-ylvinyl)-9,10-dihydro-4H-3,10a-diaza-benzo[f]azulene]	> 7.52
CN1CCC(OC2c3ccccc3CCn3c2nc(-c2ccccc2Cl)c3C(N)=O)CC1 (stereo not shown) [Example 273, 2-(2-chlorophenyl)-4-(1-methylpiperidin-4-yloxy)-9,10-dihydro-4H-3,10a-diaza-benzo[f]azulene-1-carboxylic acid amide]	> 6.52
CN1CCC(OC2c3ccccc3CCn3cc(-c4ccc(CN5CCOC5=O)cc4)nc32)CC1 (stereo not shown) [Example 181, 3-{4-[4-(1-methylpiperidin-4-yloxy)-9,10-dihydro-4H-3,10a-diaza-benzo[f]azulen-2-yl]-benzyl}-oxazolidin-2-one]	> 6.52
CN1CCC(OC2c3ccccc3CCn3cc(C=CCCCc4ccccc4)nc32)CC1 (stereo not shown) [Example 89, 4-(1-methylpiperidin-4-yloxy)-2-(5-phenylpent-1-enyl)-9,10-dihydro-4H-3,10a-diaza-benzo[f]azulene]	> 7.52
Cc1cc(C(F)(F)F)ccc1-c1cn2c(n1)C(OC1CCN(C)CC1)c1ccccc1CC2 (stereo not shown) [Example 55, 4-(1-methylpiperidin-4-yloxy)-2-(2-methyl-4-trifluoromethyl-phenyl)-9,10-dihydro-4H-3,10a-diaza-benzo[f]azulene]	> 6.52
